This is an account of results in ChEMBL document CHEMBL1149990, “1-(2-METHOXYPHENYL)-4-ALKYLPIPERAZINES: EFFECT OF THE N-4 SUBSTITUENT ON THE AFFINITY AND SELECTIVITY FOR DOPAMINE D4 RECEPTOR” (Bioorg Med Chem Lett, 1997).

Each structure is given as a SMILES string.

For one assay, the target named is T1, Adrenergic receptor alpha-1 (Rattus norvegicus, UniProt P15823+P23944+P43140).
T1 sequence (P15823 whole entry): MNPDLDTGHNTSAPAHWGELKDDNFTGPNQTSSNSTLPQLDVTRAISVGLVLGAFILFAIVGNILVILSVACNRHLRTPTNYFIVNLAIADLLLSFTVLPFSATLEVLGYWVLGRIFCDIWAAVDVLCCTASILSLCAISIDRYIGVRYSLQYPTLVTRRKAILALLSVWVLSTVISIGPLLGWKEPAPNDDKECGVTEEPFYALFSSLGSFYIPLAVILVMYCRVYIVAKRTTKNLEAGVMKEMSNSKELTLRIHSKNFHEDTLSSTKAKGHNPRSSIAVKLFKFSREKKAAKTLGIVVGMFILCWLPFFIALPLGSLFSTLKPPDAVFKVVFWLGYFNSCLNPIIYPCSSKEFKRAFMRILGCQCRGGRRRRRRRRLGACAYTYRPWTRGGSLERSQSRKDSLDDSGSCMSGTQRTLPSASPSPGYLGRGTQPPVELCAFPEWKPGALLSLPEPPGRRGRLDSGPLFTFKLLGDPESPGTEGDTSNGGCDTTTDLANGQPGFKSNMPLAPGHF
T1 sequence (P23944 whole entry): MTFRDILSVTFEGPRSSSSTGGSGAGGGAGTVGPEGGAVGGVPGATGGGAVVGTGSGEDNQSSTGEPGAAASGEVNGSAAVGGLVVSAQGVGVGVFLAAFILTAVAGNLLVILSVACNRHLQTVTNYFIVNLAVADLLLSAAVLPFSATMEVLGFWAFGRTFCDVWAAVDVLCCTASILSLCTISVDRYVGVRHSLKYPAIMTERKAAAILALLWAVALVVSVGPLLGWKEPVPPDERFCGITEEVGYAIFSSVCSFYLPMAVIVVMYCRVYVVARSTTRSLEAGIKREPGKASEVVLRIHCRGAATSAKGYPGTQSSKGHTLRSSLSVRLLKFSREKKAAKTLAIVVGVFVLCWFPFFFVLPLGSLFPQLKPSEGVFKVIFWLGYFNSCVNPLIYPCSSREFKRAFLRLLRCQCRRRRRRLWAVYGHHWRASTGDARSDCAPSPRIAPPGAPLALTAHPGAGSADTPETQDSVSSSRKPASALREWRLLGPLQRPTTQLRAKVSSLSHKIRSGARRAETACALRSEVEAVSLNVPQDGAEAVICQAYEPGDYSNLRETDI
T1 sequence (P43140 whole entry): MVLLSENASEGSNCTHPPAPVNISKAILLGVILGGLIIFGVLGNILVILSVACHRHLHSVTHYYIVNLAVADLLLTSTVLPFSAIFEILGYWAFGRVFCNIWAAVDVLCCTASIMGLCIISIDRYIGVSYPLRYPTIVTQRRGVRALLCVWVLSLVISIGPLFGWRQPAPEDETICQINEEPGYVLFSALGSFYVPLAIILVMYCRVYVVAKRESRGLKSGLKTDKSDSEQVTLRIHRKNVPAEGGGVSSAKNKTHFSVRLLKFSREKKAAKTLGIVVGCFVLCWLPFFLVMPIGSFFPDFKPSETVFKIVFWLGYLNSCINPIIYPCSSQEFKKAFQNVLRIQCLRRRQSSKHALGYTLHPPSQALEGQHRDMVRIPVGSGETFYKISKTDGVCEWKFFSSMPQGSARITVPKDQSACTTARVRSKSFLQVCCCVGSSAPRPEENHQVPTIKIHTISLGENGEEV
In words: Displacement of [3H]prazosin from Alpha-1 adrenergic receptor of rat cerebral cortex. It counts as tissue-based.
For `COc1cccc(C(=O)CCCCN2CCN(c3ccccc3OC)CC2)c1`, the Ki stood at 41 nM. On the same count and under the same terms, the same measure for `COc1cccc(C(=O)CCCN2CCN(c3ccccc3OC)CC2)c1`: 19 nM.

Take `COc1cc(N)c(Cl)cc1C(=O)NCCN1CCN(c2ccccc2OC)CC1`: the Ki is 8 nM. For the compound `COc1ccccc1N1CCN(CCCC2CCCc3c(OC)cccc32)CC1` (stereo not given), the Ki is given as 1 nM. This Ki lies about 8-fold lower than the previous one.

`COc1ccccc1N1CCN(CCC(=O)NC2CCCc3c(OC)cccc32)CC1` (stereo not given) registered a Ki of 125 nM. For `COc1ccccc1N1CCN(CCCCC2CCCc3c(OC)cccc32)CC1` (stereo not given), the Ki stood at 65 nM. On the same count and under the same terms, the figure for `COc1ccccc1N1CCN(CCCNC(=O)C2CCCc3cccc(OC)c32)CC1` (stereo not given) is 70 nM.

Another assay deals with T2, D(4) dopamine receptor (Homo sapiens, UniProt P21917).
T2 sequence (P21917 whole entry): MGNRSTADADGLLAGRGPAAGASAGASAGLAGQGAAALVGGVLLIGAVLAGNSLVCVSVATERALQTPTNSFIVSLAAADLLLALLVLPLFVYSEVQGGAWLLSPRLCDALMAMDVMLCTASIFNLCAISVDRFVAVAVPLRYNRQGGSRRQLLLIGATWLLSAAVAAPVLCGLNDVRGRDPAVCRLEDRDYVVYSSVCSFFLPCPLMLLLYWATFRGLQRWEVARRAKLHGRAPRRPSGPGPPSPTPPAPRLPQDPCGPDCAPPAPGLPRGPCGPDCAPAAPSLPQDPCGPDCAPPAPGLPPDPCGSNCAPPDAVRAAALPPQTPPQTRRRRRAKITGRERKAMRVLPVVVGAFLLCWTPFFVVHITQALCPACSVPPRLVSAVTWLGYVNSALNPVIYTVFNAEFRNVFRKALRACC
In words: Displacement of [3H]YM-09151-2 from human Dopamine receptor D4.2 expressed in baculovirus Sf9 cells.
On to `COc1cccc(C(=O)CCCCN2CCN(c3ccccc3OC)CC2)c1`, for which the affinity, expressed as Ki, was 43 nM. Compound `COc1ccccc1N1CCN(CCNC(=O)C2CCCc3c(OC)cccc32)CC1` (stereo not given) registered a Ki of 22 nM. In turn, `COc1cccc(C(=O)CCCN2CCN(c3ccccc3OC)CC2)c1` yielded a Ki of 1.7 nM. Same read-out and setting: the same measure for `COc1cc(N)c(Cl)cc1C(=O)NCCN1CCN(c2ccccc2OC)CC1`: 19 nM; for `COc1ccccc1N1CCN(CCC(=O)NC2CCCc3c(OC)cccc32)CC1` (stereo not given): 67 nM. `COc1ccccc1N1CCN(CCCCC2CCCc3c(OC)cccc32)CC1` (stereo not given): affinity was put at a Ki of 43 nM. Compared with the last compound, the Ki is about 1.6-fold lower.

Compound `COc1ccccc1N1CCN(CCCNC(=O)C2CCCc3cccc(OC)c32)CC1` (stereo not given) displayed a Ki of 49 nM. The Ki values of the last two compounds are within 1.5-fold of each other. On the same count and under the same terms, the figure for `COc1ccccc1N1CCN(Cc2cccc(-c3ccccc3)c2)CC1` is 8 nM.
